Measured values from article PMC9898036, “VIP152 is a selective CDK9 inhibitor with pre-clinical in vitro and in vivo efficacy in chronic lymphocytic leukemia” (Leukemia, 2022).

How the values were obtained:
EPHB4 = EPHB4 (Homo sapiens, UniProt P54760); test: KINOMEscan: EPHB4; assay type: binding; details: 1000 nM, read-out: Percent Control
[1] = molecular target: RSK2(Kin.Dom.1-N-terminal) (Homo sapiens, UniProt P51812); test: KINOMEscan: RSK2(Kin.Dom.1-N-terminal); assay type: binding; details: 100 nM, read-out: Percent Control
Sequence of RSK2(Kin.Dom.1-N-terminal) (P51812 1-397 limits assumed): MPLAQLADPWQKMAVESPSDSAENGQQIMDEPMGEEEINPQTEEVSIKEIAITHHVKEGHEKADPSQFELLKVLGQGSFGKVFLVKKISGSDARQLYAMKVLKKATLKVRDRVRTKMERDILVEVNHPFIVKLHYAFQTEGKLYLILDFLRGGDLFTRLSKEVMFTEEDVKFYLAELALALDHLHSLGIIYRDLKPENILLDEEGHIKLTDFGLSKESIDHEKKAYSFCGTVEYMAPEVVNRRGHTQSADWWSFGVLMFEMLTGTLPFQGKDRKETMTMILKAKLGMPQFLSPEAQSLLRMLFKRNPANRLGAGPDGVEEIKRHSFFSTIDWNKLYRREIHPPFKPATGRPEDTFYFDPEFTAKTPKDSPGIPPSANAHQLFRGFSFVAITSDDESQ

LRRK2 = LRRK2 (Homo sapiens, UniProt Q5S007); test: KINOMEscan: LRRK2; assay type: binding; details: 1000 nM, read-out: Percent Control
KIT = KIT (Homo sapiens, UniProt P10721); test: KINOMEscan: KIT; assay type: binding; details: 1000 nM, read-out: Percent Control
[2] = tested on: GABAA, Flunitrazepam, Central; test: Eurofins Diversity Panel; assay type: binding; details: rat, Conc. 10 μM
MAPKAPK2 = MAPKAPK2 (Homo sapiens, UniProt P49137); test: KINOMEscan: MAPKAPK2; assay type: binding; details: 1000 nM, read-out: Percent Control
[3] = molecular target: Androgen (Testosterone) AR (Rattus norvegicus, UniProt P15207); test: Eurofins Diversity Panel; assay type: binding; details: Conc. 10 μM
YANK1 = YANK1 (Homo sapiens, UniProt Q8WU08); test: KINOMEscan: YANK1; assay type: binding; details: 100 nM, read-out: Percent Control
TGFBR2 = TGFBR2 (Homo sapiens, UniProt P37173); test: KINOMEscan: TGFBR2; assay type: binding; details: 100 nM, read-out: Percent Control
α2C receptor = molecular target: T1, α2C receptor (Homo sapiens, UniProt P18825); test: Eurofins Diversity Panel: adrenergic α2C receptor; assay type: binding
T1 construct: purchased Eurofins

FER = FER (Homo sapiens, UniProt P16591); test: KINOMEscan: FER; assay type: binding; details: 1000 nM, read-out: Percent Control
Sequence of FER (P16591 whole entry): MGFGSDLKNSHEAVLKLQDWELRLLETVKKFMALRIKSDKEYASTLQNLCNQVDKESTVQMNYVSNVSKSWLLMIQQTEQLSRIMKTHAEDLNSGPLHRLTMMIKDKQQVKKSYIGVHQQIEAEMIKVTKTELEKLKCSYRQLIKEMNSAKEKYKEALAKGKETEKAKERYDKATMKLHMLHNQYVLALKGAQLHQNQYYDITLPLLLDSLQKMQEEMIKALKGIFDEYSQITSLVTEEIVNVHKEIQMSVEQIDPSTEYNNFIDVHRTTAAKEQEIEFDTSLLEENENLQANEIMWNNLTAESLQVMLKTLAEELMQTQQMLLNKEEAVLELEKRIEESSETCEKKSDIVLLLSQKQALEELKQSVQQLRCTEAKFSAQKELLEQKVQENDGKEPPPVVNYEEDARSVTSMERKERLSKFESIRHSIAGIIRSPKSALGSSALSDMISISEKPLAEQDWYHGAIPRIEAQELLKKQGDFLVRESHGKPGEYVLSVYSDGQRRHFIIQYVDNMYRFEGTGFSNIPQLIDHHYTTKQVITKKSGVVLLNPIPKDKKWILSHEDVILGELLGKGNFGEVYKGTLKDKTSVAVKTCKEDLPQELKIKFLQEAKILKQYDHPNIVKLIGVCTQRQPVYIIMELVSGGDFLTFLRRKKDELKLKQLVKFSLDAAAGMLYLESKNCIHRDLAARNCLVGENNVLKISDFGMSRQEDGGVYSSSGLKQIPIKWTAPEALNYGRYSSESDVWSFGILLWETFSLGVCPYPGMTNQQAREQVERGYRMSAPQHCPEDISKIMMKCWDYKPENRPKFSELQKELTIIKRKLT

[4] = molecular target: Epidermal Growth Factor (EGF) (Homo sapiens, UniProt P00533); test: Eurofins Diversity Panel; assay type: binding; details: hum, Conc. 10 μM
DDR1 = DDR1 (Homo sapiens, UniProt Q08345); test: KINOMEscan: DDR1; assay type: binding; details: 1000 nM, read-out: Percent Control
Sequence of DDR1 (Q08345 19-913): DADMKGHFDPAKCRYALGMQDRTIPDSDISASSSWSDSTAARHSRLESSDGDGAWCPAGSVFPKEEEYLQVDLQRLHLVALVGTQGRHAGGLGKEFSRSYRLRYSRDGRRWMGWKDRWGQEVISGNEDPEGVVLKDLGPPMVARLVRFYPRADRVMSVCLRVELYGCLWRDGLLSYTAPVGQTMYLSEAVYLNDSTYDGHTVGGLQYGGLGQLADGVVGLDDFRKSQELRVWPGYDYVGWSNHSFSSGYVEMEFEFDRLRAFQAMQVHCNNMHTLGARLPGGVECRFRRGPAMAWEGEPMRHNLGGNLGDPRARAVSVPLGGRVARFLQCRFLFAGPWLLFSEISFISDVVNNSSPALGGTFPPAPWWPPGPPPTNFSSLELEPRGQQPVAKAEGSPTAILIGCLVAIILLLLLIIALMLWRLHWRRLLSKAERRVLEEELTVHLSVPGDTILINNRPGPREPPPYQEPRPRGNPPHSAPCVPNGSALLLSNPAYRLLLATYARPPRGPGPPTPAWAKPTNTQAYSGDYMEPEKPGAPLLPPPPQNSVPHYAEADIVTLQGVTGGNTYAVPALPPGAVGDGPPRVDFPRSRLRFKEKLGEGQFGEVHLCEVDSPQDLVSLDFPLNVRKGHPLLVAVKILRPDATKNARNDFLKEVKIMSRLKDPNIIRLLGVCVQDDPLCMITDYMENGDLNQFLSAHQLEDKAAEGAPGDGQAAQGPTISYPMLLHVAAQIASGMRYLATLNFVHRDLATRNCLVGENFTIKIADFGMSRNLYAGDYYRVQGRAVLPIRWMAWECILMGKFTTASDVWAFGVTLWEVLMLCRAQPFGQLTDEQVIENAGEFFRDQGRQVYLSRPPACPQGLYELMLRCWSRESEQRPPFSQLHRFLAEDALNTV

HIPK4 = HIPK4 (Homo sapiens, UniProt Q8NE63); test: KINOMEscan: HIPK4; assay type: binding; details: 1000 nM, read-out: Percent Control
Sequence of HIPK4 (Q8NE63 whole entry): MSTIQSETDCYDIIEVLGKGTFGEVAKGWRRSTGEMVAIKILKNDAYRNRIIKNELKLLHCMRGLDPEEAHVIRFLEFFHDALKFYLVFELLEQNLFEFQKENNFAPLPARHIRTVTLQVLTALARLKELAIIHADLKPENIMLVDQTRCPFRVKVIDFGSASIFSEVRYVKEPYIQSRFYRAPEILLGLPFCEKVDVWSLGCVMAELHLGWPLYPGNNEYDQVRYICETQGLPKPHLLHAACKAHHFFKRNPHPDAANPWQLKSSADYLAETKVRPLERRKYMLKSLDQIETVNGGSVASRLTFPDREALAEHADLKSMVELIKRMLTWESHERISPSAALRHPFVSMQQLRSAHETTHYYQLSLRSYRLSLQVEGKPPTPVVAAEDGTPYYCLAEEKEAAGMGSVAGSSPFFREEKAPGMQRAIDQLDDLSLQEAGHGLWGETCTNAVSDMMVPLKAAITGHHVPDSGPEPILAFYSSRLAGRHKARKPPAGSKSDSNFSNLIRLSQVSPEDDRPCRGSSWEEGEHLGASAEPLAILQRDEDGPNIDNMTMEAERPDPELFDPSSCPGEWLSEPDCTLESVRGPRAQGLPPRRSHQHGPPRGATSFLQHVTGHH

GSK3α = GSK3α (Homo sapiens, UniProt P49840); test: KINOMEscan: GSK3α; assay type: binding
Sequence of GSK3α (P49840 whole entry): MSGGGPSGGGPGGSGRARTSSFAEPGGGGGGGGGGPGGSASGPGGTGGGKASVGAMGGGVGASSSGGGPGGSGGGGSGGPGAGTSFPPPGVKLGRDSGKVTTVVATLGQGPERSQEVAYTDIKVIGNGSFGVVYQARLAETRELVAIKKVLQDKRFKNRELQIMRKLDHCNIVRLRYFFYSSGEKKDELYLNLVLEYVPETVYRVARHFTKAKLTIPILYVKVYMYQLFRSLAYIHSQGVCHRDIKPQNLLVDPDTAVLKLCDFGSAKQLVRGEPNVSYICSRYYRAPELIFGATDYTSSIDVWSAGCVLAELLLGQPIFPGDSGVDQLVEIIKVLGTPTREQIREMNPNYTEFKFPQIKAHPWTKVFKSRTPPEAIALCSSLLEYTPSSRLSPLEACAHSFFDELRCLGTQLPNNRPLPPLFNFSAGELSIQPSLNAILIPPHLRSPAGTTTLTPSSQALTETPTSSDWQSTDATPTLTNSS
Procedure: The structure and synthesis of VIP152 were recently described by Lücking et al.. (Fig. 1A); however, the selectivity of the molecule in cellular systems has yet to be explored. […] We also performed this experiment at 1000 nM, where CDK9 was inhibited at 99%. […] We found a strong concordance between our data and those of Lücking when comparing the most inhibited kinases. Potential off-target effects of VIP152 were next tested in vitro at a concentration of 10 µM for off-target activity against a broad range of receptors, transporters, ion channels, and enzymes (n = 138) using the Eurofins Diversity Panel.
Kinomescan Kinase Profiling Assay
Kinomescan Assay was performed at DiscoverRX and described in Fabian, et al. 2005, Nat.
Biotechnol. In brief, kinases were produced and subsequently tagged with DNA for qPCR detection.
Streptavidin-coated magnetic beads were bound to biotinylated kinase ligands to serve as a solid support.
VIP152 was dissolved in DMSO and tested across a 10 serial threefold dilution set and compared to a test compound and a DMSO control. Kinases which were inhibited by VIP152 would not be bound to the solid-support resulting in decreased substrate for the qPCR reaction. Kinome map was produced via TreeSpot Analysis from DiscoverRX. […]
NanoBRETTM Target Engagement Assay Protocol […]
HEK293 cells were grown to 70-80% confluence appropriately prior to assay and subsequently trypsinized. Lipid:DNA complexes were prepared as follows. A 10µg/mL solution of DNA in Opti-MEM without serum consisting of the following ratios of carrier DNA and DNA encoding NanoLuc fusion were prepared.
9.0µg/mL of Transfection Carrier DNA, 1.0µg/mL of NanoLuc fusion vector DNA, and 1mL of Opti-MEM without phenol red. The solution was mixed thoroughly. Next, 30µL of FuGENE HD Transfection Reagent was added into each mL of DNA mixture to form the lipid:DNA complex and mixed by inversion 10 times followed by a 20 minute incubation at room temperature. […]

RET(V804M) = RET(V804M) (Homo sapiens, UniProt P07949, V804M); test: KINOMEscan: RET(V804M); assay type: binding; details: 100 nM, read-out: Percent Control
OSU-CLL = test: MTS proliferation assay; assay type: cell-based; details: Homo sapiens, 24, 48, and 72 h
IRAK3 = IRAK3 (Homo sapiens, UniProt Q9Y616); test: KINOMEscan: IRAK3; assay type: binding; details: 1000 nM, read-out: Percent Control
FAK = FAK (Homo sapiens, UniProt Q05397); test: KINOMEscan: FAK; assay type: binding; details: 1000 nM, read-out: Percent Control
Sequence of FAK (Q05397 whole entry): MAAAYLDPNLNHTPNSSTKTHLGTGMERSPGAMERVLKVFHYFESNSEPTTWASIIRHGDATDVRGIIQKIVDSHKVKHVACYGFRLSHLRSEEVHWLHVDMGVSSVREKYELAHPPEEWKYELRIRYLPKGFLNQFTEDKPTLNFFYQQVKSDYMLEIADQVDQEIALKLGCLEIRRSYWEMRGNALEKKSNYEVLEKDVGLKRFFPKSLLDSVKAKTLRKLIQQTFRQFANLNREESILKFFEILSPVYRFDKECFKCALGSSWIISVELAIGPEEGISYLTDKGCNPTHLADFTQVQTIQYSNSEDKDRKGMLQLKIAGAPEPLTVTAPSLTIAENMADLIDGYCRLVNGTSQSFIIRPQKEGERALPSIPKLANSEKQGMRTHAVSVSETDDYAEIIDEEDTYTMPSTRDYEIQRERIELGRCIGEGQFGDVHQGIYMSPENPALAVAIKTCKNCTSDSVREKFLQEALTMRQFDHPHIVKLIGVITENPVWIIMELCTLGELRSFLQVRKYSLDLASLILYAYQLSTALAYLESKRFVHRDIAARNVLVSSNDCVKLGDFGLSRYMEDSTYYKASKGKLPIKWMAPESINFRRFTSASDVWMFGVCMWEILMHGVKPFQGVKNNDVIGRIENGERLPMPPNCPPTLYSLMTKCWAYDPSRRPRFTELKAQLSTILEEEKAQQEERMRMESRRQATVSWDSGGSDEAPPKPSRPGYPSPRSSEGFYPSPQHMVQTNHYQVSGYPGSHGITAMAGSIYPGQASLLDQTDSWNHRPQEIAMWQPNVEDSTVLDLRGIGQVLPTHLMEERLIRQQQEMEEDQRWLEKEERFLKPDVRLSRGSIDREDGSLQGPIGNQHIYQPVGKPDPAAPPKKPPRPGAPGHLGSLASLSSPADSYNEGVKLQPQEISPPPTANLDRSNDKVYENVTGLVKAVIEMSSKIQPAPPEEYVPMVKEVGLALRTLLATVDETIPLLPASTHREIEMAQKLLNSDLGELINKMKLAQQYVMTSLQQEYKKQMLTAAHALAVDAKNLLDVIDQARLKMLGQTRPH

MELK = MELK (Homo sapiens, UniProt Q14680); test: KINOMEscan: MELK; assay type: binding; details: 1000 nM, read-out: Percent Control
Sequence of MELK (Q14680 whole entry): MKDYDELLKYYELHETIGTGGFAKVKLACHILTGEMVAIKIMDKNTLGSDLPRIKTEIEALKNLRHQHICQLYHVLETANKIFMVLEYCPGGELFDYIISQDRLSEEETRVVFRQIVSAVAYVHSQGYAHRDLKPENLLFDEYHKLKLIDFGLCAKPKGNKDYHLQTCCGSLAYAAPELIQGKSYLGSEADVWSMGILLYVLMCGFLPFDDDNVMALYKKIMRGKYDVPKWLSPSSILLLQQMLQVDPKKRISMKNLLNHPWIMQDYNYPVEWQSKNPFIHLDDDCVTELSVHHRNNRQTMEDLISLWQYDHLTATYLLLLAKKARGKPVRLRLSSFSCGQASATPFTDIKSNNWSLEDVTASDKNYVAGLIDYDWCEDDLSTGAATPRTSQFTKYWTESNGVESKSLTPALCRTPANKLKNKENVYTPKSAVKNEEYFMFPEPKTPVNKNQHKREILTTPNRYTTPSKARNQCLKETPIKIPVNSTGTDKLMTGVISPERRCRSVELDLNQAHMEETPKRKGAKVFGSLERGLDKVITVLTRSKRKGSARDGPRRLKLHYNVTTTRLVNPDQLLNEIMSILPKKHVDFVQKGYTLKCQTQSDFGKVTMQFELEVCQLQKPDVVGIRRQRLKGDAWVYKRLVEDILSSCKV

[5] = tested on: broad range of receptors, transporters, ion channels, and enzymes; test: Eurofins Diversity Panel, whole panel (n = 138); assay type: binding; details: 10 µM, except imidazoline I2, Sigma σ1, adrenergic α2A, α2B, α2C
LRRK2(G2019S) = LRRK2(G2019S) (Homo sapiens, UniProt Q5S007, G2019S); test: KINOMEscan: LRRK2(G2019S); assay type: binding; details: 1000 nM, read-out: Percent Control
MAP3K2 = MAP3K2 (Homo sapiens, UniProt Q9Y2U5); test: KINOMEscan: MAP3K2; assay type: binding; details: 1000 nM, read-out: Percent Control
FLT3(D835V) = FLT3(D835V) (Homo sapiens, UniProt P36888, D835V); test: KINOMEscan: FLT3(D835V); assay type: binding; details: 1000 nM, read-out: Percent Control

COc1cc(F)ccc1-c1cc(Nc2cc(CS(C)(=N)=O)ccn2)ncc1F (centres unmarked) [VIP152]
remaining binding at 1 µM (EPHB4): 100% | remaining binding at 0.1 µM [1]: 100% | remaining binding at 1 µM (LRRK2): 50% | remaining binding at 1 µM (KIT): 83% | % Inh. [2]: 6% | remaining binding at 1 µM (MAPKAPK2): 81% | inhibition at 10 µM [3]: 35% | remaining binding at 0.1 µM (YANK1): 100% | remaining binding at 0.1 µM (TGFBR2): 100% | IC50 (α2C receptor): 340 nM | remaining binding at 1 µM (FER): 97% | inhibition at 10 µM [4]: -15% | remaining binding at 1 µM (DDR1): 29% | remaining binding at 1 µM (HIPK4): 68% | inhibition at 0.1 µM (GSK3α; 100 nM, read-out: inhibition of GSK3α relative to control): 97.1% | remaining binding at 0.1 µM (GSK3α; GSK3A, 100 nM, read-out: Percent Control): 2.9% | remaining binding at 1 µM (GSK3α; GSK3A, 1000 nM, read-out: Percent Control): 4.5% | remaining binding at 0.1 µM (RET(V804M)): 100% | IC50 (OSU-CLL): ~100 nM | remaining binding at 1 µM (IRAK3): 52% | remaining binding at 1 µM (FAK): 83% | remaining binding at 1 µM (MELK): 96% | off-target activity across the panel [5]: No significant (>50%) interference | remaining binding at 1 µM (LRRK2(G2019S)): 86% | remaining binding at 1 µM (MAP3K2): 57% | remaining binding at 1 µM (FLT3(D835V)): 15%
